From patent US20030229067A1, “Pyrrolopyrimidine A2b selective antagonist compounds, their synthesis and use” (priority 2001, published 2003)

Row | melting point | Compound
1 | 120 to 125 °C | CC(=O)NCCNc1nc(-c2ccccc2)nc2[nH]c(C(=O)N3C[C@@H](C)NC[C@@H]3C)cc12 (relative stereo) [26.31, N-{2-[6-(trans-2,5-Dimethylpiperazine-1-carbonyl)-2-phenyl-7H-pyrrolo[2,3-d]pyrimidin-4-ylamino]-ethyl}-acetamide]
2 | 280 to 285 °C (dec.) | CC(=O)NCCNc1nc(-c2ccccc2)nc2[nH]c(C(=O)NC3CC4CCC3C4)cc12 (stereo not shown) [26.17]
3 | 150 to 153 °C | CC(=O)NCCNc1nc(-c2ccccc2)nc2[nH]c(C(=O)N3CCC(O)(c4ccc(F)cc4)CC3)cc12 [26.18, N-(2-{6-[4-(4-Fluorophenyl)4-hydroxypiperidine-1-carbonyl]-2-phenyl-7H-pyrrolo[2,3-d]pyrimidin-4-ylamino}-ethyl)-acetamide]
4 | 150 to 155 °C (dec.) | CC(=O)NCCNc1nc(-c2ccccc2)nc2[nH]c(C(=O)N3CCC(C#N)(c4ccccc4)CC3)cc12 [26.19, N-{2-[6-(4-Cyano-4-phenylpiperidine-1-carbonyl)-2-phenyl-7H-pyrrolo[2,3-d]pyrimidin-4-ylamino]-ethyl}-acetamide]
5 | 140 to 142 °C | CC(=O)NCCNc1nc(-c2ccccc2)nc2[nH]c(C(=O)Nc3cccc(Oc4ccccc4)c3)cc12 [26.20, 4-(2-Acetylaminoethylamino)-2-phenyl-7H-pyrrolo[2,3-d]pyrimidine-6-carboxylic acid (3-phenoxyphenyl)-amide]
6 | 213 to 215 °C | CC(=O)NCCNc1nc(-c2ccccc2)nc2[nH]c(C(=O)N3CCN(CC#Cc4ccccc4)CC3)cc12 [26.21, N-(2-{2-Phenyl-6-[4-(3-phenylprop-2-ynyl)-piperazine-1-carbonyl]-7H-pyrrolo[2,3-d]pyrimidin-4-ylamino}-ethyl)-acetamide]
7 | 138 to 140 °C | CC(=O)NCCNc1nc(-c2ccccc2)nc2[nH]c(C(=O)N3C[C@@H](C)N[C@@H](C)C3)cc12 [26.22, N-{2-[6-(cis-3,5-Dimethylpiperazine-1-carbonyl)-2-phenyl-7H-pyrrolo[2,3-d]pyrimidin-4-ylamino]-ethyl}-acetamide]
8 | 86 to 89 °C | CC(=O)NCCNc1nc(-c2ccccc2)nc2[nH]c(C(=O)N3C[C@@H](C)N(CCCc4ccccc4)[C@@H](C)C3)cc12 [26.24, N-(2-{6-[cis-3,5-Dimethyl-4-(3-phenylpropyl)-piperazine-1-carbonyl]-2-phenyl-7H-pyrrolo[2,3-d]pyrimidin-4-ylamino}-ethyl)-acetamide]
9 | 254 to 256 °C | CC(=O)NCCNc1nc(-c2ccccc2)nc2[nH]c(C(=O)N3CCC(c4ccccc4)(c4ccccc4)CC3)cc12 [26.25, N-{2-[6-(4,4-Diphenylpiperidine-1-carbonyl)-2-phenyl-7H-pyrrolo[2,3-d]pyrimidin-4-ylamino]-ethyl}-acetamide]
10 | 156 to 159 °C (dec.) | CC(=O)NCCNc1nc(-c2ccccc2)nc2[nH]c(C(=O)N3CCCC(c4ccccc4)(c4ccccc4)C3)cc12 [26.26, N-{2-[6-(3,3-Diphenylpiperidine-1-carbonyl)-2-phenyl-7H-pyrrolo[2,3-d]pyrimidin-4-ylamino]-ethyl}-acetamide]
11 | 135 to 138 °C | COC1(c2ccccc2)CCN(C(=O)c2cc3c(NCCNC(C)=O)nc(-c4ccccc4)nc3[nH]2)CC1 [26.27, N-{2-[6-(4-Methoxy-4-phenylpiperidine-1-carbonyl)-2-phenyl-7H-pyrrolo[2,3-d]pyrimidin-4-ylamino]-ethyl}-acetamide]
12 | 283 to 284 °C (dec.) | CC(=O)NCCNc1nc(-c2ccccc2)nc2[nH]c(C(=O)N3CCC(Cc4ccc(F)cc4)CC3)cc12 [26.28, N-(2-{6-[4-(4-Fluorobenzyl)-piperidine-1-carbonyl]-2-phenyl-7H-pyrrolo[2,3-d]pyrimidin-4-ylamino}-ethyl)-acetamide]
13 | 135 to 145 °C (dec.) | CC(=O)NCCNc1nc(-c2ccccc2)nc2[nH]c(C(=O)N3CCC(C(O)c4ccc(F)cc4)CC3)cc12 (stereo not shown) [26.29]
14 | 98 to 100 °C | CC(=O)NCCNc1nc(-c2ccccc2)nc2[nH]c(C(=O)N3C[C@@H](C)N(CCCc4ccccc4)C[C@@H]3C)cc12 [26.30]
15 | 196 to 198 °C | CC(=O)NCCNc1nc(-c2ccccc2)nc2[nH]c(C(=O)N3C[C@@H](C)N(Cc4ccccc4)[C@@H](C)C3)cc12 [26.32]
16 | 110 to 115 °C (dec.) | CC(=O)NCCNc1nc(-c2ccccc2)nc2[nH]c(C(=O)N3C[C@@H](C)N(CCc4ccccc4)[C@@H](C)C3)cc12 [26.33, N-{2-[6-(cis-3,5-Dimethyl-4-phenethylpiperazine-1-carbonyl)-2-phenyl-7H-pyrrolo[2,3-d]pyrimidin-4-ylamino]-ethyl}-acetamide]
17 | 223 to 226 °C (dec.) | CC(=O)NCCNc1nc(-c2ccccc2)nc2[nH]c(C(=O)N3CCN(c4ccccn4)CC3)cc12 [26.35, N-{2-[2-Phenyl-6-(4-pyridin-2-yl-piperazine-1-carbonyl)-7H-pyrrolo[2,3-d]pyrimidin-4-ylamino]-ethyl}-acetamide]
18 | 140 to 145 °C | CC(=O)NCCNc1nc(-c2ccccc2)nc2[nH]c(C(=O)N3CCCC(C)(c4ccccc4)C3)cc12 (stereo not shown) [26.36, N-{2-[6-(3-Methyl-3-phenylpiperidine-1-carbonyl)-2-phenyl-7H-pyrrolo[2,3-d]pyrimidin-4-ylamino]-ethyl}-acetamide]
19 | 225 to 228 °C | CC(=O)NCCNc1nc(-c2ccccc2)nc2[nH]c(C(=O)N3CCN(c4ncccc4C(F)(F)F)CC3)cc12 [26.37, N-(2-{2-Phenyl-6-[4-(3-trifluoromethylpyridin-2-yl)-piperazine-1-carbonyl]-7H-pyrrolo[2,3-d]pyrimidin-4-ylamino}-ethyl)-acetamide]

The remaining lines, values behind:

Row | Compound | melting point
20 | COC(=O)c1cccc(OCc2cc3c(NCCNC(C)=O)nc(-c4ccccc4)nc3[nH]2)c1 [9.19, 3-[4-(2-Acetylaminoethylamino)-2-phenyl-7H-pyrrolo[2,3-d]pyrimidin-6-ylmethoxy]-benzoic acid methyl ester] | 80 to 85 °C (dec.)
21 | CC(=O)NCCNc1nc(-c2ccccc2)nc2[nH]c(/C=N/OCc3ccccc3)cc12 [22.1, N-{2-[6-(Benzyloxyiminomethyl)-2-phenyl-7H-pyrrolo[2,3-d]pyrimidin-4-ylamino]-ethyl}-acetamide] | 83 to 87 °C (dec.)
22 | CC(=O)NCCNc1nc(-c2ccccc2)nc2[nH]c(C(=O)N3CCOCC3)cc12 [26.1, N-{2-[6-(Morpholine-4-carbonyl)-2-phenyl-7H-pyrrolo[2,3-d]pyrimidin-4-ylamino]-ethyl}-acetamide] | 250 °C
23 | CC(=O)NCCNc1nc(-c2ccccc2)nc2[nH]c(C(=O)Nc3ccc(Oc4ccccc4)cc3)cc12 [26.2, 4-(2-Acetylaminoethylamino)-2-phenyl-7H-pyrrolo[2,3-d]pyrimidine-6-carboxylic acid (4-phenoxyphenyl)-amide] | 250 to 257 °C (dec.)
24 | CC(=O)NCCNc1nc(-c2ccccc2)nc2[nH]c(C(=O)N3CCC(O)(C(C)C)CC3)cc12 [26.4, N-{2-[6-(4-Hydroxy4-isopropylpiperidine-1-carbonyl)-2-phenyl-7H-pyrrolo[2,3-d]pyrimidin-4-ylamino]-ethyl}-acetamide] | 140 to 145 °C (dec.)
25 | CC(=O)NCCNc1nc(-c2ccccc2)nc2[nH]c(C(=O)N3CCC(O)(c4ccccc4)CC3)cc12 [26.7, N-{2-[6-(4-Hydroxy4-phenylpiperidine-1-carbonyl)-2-phenyl-7H-pyrrolo[2,3-d]pyrimidin-4-ylamino]-ethyl}-acetamide] | 158 to 162 °C (dec.)
26 | CC(=O)NCCNc1nc(-c2ccccc2)nc2[nH]c(C(=O)N3CCC(O)(Cc4ccccc4)CC3)cc12 [26.8, N-{2-[6-(4-Benzyl-4-hydroxypiperidine-1-carbonyl)-2-phenyl-7H-pyrrolo[2,3-d]pyrimidin-4-ylamino]-ethyl}-acetamide] | 140 to 145 °C (dec.)
27 | NC(=O)CNc1nc(-c2ccccc2)nc2[nH]c(C(=O)N3CCC(O)(c4ccc(Cl)cc4)CC3)cc12 [26.9, 2-{6-[4-(4-Chlorophenyl)-4-hydroxypiperidine-1-carbonyl]-2-phenyl-7H-pyrrolo[2,3-d]pyrimidin-4-ylamino}-acetamide] | 200 to 205 °C (dec.)
28 | CC(=O)NCCNc1nc(-c2ccccc2)nc2[nH]c(C(=O)N3CCC(O)(c4cccc(C(F)(F)F)c4)CC3)cc12 [26.10] | 145 to 150 °C
29 | CC(=O)NCCNc1nc(-c2ccccc2)nc2[nH]c(C(=O)N3CCN(CCc4ccccc4)CC3)cc12 [26.11, N-{2-[6-(4-Phenethylpiperazine-1-carbonyl)-2-phenyl-7H-pyrrolo[2,3-d]pyrimidin-4-ylamino]-ethyl}-acetamide] | 226 to 228 °C
30 | CC(=O)NCCNc1nc(-c2ccccc2)nc2[nH]c(C(=O)N3CCN(CCCN4CCOCC4)CC3)cc12 [26.12, N-(2-{6-[4-(3-Morpholin-4-ylpropyl)-piperazine-1-carbonyl]-2-phenyl-7H-pyrrolo[2,3-d]pyrimidin-4-ylamino}-ethyl)-acetamide] | 225 to 230 °C (dec.)
31 | CC(=O)NCCNc1nc(-c2ccccc2)nc2[nH]c(C(=O)N3CC=C(c4ccc(Cl)cc4)CC3)cc12 [26.13, N-(2-{6-[4-(4-Chlorophenyl)-3,6-dihydro-2H-pyridine-17carbonyl]-2-phenyl-7H-pyrrolo[2,3-d]pyrimidin-4-ylamino}-ethyl)-acetamide] | 172 to 175 °C
32 | CC(=O)NCCNc1nc(-c2ccccc2)nc2[nH]c(C(=O)N3CCN(Cc4ccccc4)CC3)cc12 [26.14, N-{2-[6-(4-Benzylpiperazine-1-carbonyl)-2-phenyl-7H-pyrrolo[2,3-d]pyrimidin-4-ylamino]-ethyl}-acetamide] | 235 to 240 °C (dec.)
33 | NC(=O)CNc1nc(-c2ccccc2)nc2[nH]c(C(=O)N3CCN(CCCc4ccccc4)CC3)cc12 [26.15, 2-{2-Phenyl-6-[4-(3-phenylpropyl)-piperazine-1-carbonyl]-7H-pyrrolo[2,3-d]pyrimidin-4-ylamino}-acetamide] | 213 to 217 °C
34 | CC(=O)NCCNc1nc(-c2ccccc2)nc2[nH]c(C(=O)N3CCN(CCOc4ccc(Cl)cc4)CC3)cc12 [26.16, N-[2-(6-{4-[2-(4-Chlorophenoxy)-ethyl]-piperazine-1-carbonyl}-2-phenyl-7H-pyrrolo[2,3-d]pyrimidin-4-ylamino)-ethyl]-acetamide] | 227 to 228 °C
